From patent US12576018B2, “Active agents for skin and hair care with sensory modifying properties” (SYMRISE AG, priority 2019, dated 2026)

System: skin
Assay: Sensory assessment of 1 wt.-% 3-hydroxypropyl undecylenate in o/w emulsion versus placebo
Assay type: in vivo, human
Settings: 1 wt.-% in o/w emulsion vs placebo without active
Protocol: Heat phase A and C separately up to 80° C. Disperse phase B in phase A. Add phase C to phase AB and emulsify using a HomoRex stirrer (3 min, […]). Add phase D and neutralize. Allow to cool by using a vane stirrer (10 min at 150 rpm, then 10 min at 100 rpm). Pre-dissolve 3-hydroxypropyl undecylenate with pentylene glycol and propylene glycol (phase E) and add to the emulsion by using a vane stirrer (10 min, 100 rpm). Sensory Assessment: Test design (for two samples; presented in random order) 100 μl of sample was applied on the forearm. Sample was distributed with index and middle finger in rotary movements for 20 seconds. Then the second sample is applied on the other forearm and again distributed. After 3 minutes the skin feel is evaluated. Question to the panellists: Which formulation (A or B) leaves the skin more soft and moisturized on a scale from 0-4? (Soft/moisture: 0=not at all; 4=very strong)

C=CCCCCCCCCC(=O)OCCCO [3-hydroxypropyl undecylenate]
Soft and moisturized skin feel versus placebo (in words): more soft and moisturized skin feel
